Reference: patent US20210330599A1, “Nanoparticles for Controlled Release of Anti-Biofilm Agents and Methods of Use” (University of Rochester, priority 2016, published 2021)
Several values for one entry are separate records, joined by “and”; a condition that tells them apart may be missing. Equal values may be shown once.

Columns and labels:
[1] = monomer / monomer residue; cited from earlier work
[2] = farnesol on one degradable tether length (6 degradable bonds)
S. mutans cells = system: S. mutans cells
Excerpt: (§1) In addition, amine fluoride is known to have antibacterial properties.

[3] = pKa and protonation values of monomers and polymers; type: physicochemical; settings: FIG. 22
[4] = Encapsulation of fluoride using NPC; type: physicochemical; settings: preliminary studies
Excerpt: as §1

Streptococcus mutans = settings: cited from earlier work
S. mutans UA159 biofilms = test: S. mutans biofilm on sHA discs, topical treatment regimen (Example 2); type: cell-based, Streptococcus mutans; settings: equivalent farnesol dose / controls
Description: Biofilms of S. mutans UA159 were formed on saliva coated hydroxyapatite (sHA) surfaces (12.7 mm in diameter, 1 mm in thickness, Clarkson Chromatography Products Inc., South Williamsport, Pa.) as detailed elsewhere (Koo et al., 2010, J Bacteriol, 192(12):3024-32). […] Disks were pretreated with the above-described solutions for 10 min, washed twice with sterile saline, and transferred back to culture media. […] Biofilms were allowed to form on the discs without interruption for 6 hours at which point a second treatment was applied. The next day, biofilms were treated every 6 hours for a total of 3 treatments and the culture media was changed twice. After 48 hours, the amount of colony forming units (CFU) per dry-weight of biofilms was assessed. Briefly, the biofilms were removed and homogenized, then plated onto blood agar plates, and after incubation at 37° C., 5% CO2, the CFUs were counted as described previously (Koo et al., 2003, J Antimicrob Chemother, 52(5):782-9).

[5] = system: Streptococcus mutans UA159 biofilms; test: S. mutans biofilm on sHA discs, topical treatment regimen (Example 3); type: cell-based; settings: 7 topical applications over 54 h
Description: Streptococcus mutans UA159, a well-characterized EPS matrix producing and cariogenic pathogen (W. H. Bowen and H. Koo, Caries Res., 2011, 45, 69-86), was used to assess the effect of nanoparticle-mediated delivery of farnesol on biofilm formation using a topical treatment regimen (Horev et al., ACS Nano, 2015, 9, 2390-2404; Koo et al., J. Antimicrob. Chemother., 2003, 52, 782-789). The treatment solutions were: free nanoparticles (1.9 mg ml^−1 in PBS, pH 7.0), farnesol-loaded nanoparticles (1.9 mg ml^−1 loaded with 0.5 mg ml^−1 farnesol, in PBS, pH 7.0), free farnesol (0.5 mg ml^−1 farnesol, in PBS, pH 7.0, 20% ethanol (EtOH)), vehicle control for free farnesol (PBS, pH 7.0, 20% EtOH), and PBS (pH 7.0). A 20% v/v ethanol solution was used as a vehicle to solubilize free farnesol, which is otherwise insoluble in aqueous media (Koo et al., J. Antimicrob. Chemother., 2003, 52, 782-789). […]
The sHA discs and biofilms were treated for 10 min, washed twice with sterile saline (0.89% NaCl), and transferred to culture media. […] Aliquots of biofilm suspension were serially diluted and plated onto blood agar plates, and after 48 h incubation (37° C. and 5% CO2), the colonies were visually counted. […]

## C=C(C)C(=O)OCCN(CC)CC [DEAEMA, diethylaminoethyl methacrylate]
[1]
  pKa of monomer: ~7

## propylacrylic acid [PAA]
[1]
  pKa of monomer: ~7 and 6.8-7.0

## C=C(C)C(=O)O [MAA, methacrylic acid]
[1]
  pKa of monomer: ~4.6

## Imidazole methacrylate [IMA]
[1]
  pKa of monomer: 6.9-7.0

## poly(dimethylaminoethyl methacrylate)-b-poly(dimethylaminoethyl methacrylate-co-propylacrylic acid-co-butyl methacrylate) [NPC]
[2]
  duration of sustained delivery of farnesol: up to 6 days

## Amine fluoride
S. mutans cells
  biofilm formation: inhibit biofilm formation
  killing of S. mutans cells: able to kill S. mutans cells at the μM level

## ethylacrylic acid [EAA]
[1]
  pKa of monomer: ~6.3 and 6.3-6.5
[3]
  pKa of synthesized imidazole and ethylacrylic acid functionalities: 6.3

## C=C(C)C(=O)OCCN(C)C [DMAEMA, dimethylaminoethyl methacrylate]
[1]
  pKa of monomer: ~7.2 and 7.2-7.4

## [F-].[Na+] [sodium fluoride]
[4]
  compatibility with loading into NPC: not compatible with loading into or onto the NPC

## CC(C)=CCCC(C)=CCCC(C)=CCO [farnesol]
Streptococcus mutans
  MIC of farnesol: < 28 mg/L
S. mutans UA159 biofilms
  effect on biofilm CFU relative to PBS: no effect on CFU relative to PBS
[5]
  CFUs per biofilm dry weight / antibiofilm efficacy: only a modest reduction
